Tests used:
[1] = Percentage diffusion of 4-aminopyridine through the transdermal drug delivery system over time; format: in vitro ADME
Procedure: (§1) The patch in the transdermal drug delivery system consisted of 23% (w/w) glycerol, 16% (w/w) gum Arabic, 11% (w/w) medium molecular weight chitosan, and 48% (w/w) lactic acid. The patch was prepared by casting the liquid matrix gel upon a suitable Teflon backing layer and drying for 18 hours at 55° C. The resulting diffusion profiles were obtained by conducting the same experiment three times. The patch samples indicate the number of times that the same experiment was conducted.
The patch in the transdermal drug delivery system consisted of 50% (w/w) glycerol, 14% (w/w) PVP, 18% (w/w) medium molecular weight chitosan, and 18% (w/w) lactic acid. The patch was prepared by casting the liquid matrix gel upon a suitable Teflon backing layer and drying for 3 hours at 80° C. The resulting diffusion profiles were obtained by conducting the same experiment eight times. The patch samples indicate the number of times that the same experiment was conducted.
as §1, with “36%” for “23%”, “15.3% PVP, 0.7%” for “16%”, “9.5%” for “11%”, “38.5%” for “48%”, “5” for “18”, “80°” for “55°”
The percentage diffusion of 4-aminopyridine through the transdermal drug delivery system provided herein was measured over time, using different patch compositions. […] The patch was prepared by casting the liquid matrix gel upon a suitable Teflon backing layer and drying for 18 hours at 55° C.
The patch was prepared by casting the liquid matrix gel upon a suitable Teflon backing layer and drying for 3 hours at 80° C.
The patch was prepared by casting the liquid matrix gel upon a suitable Teflon backing layer and drying for 5 hours at 80° C.

[2] = Procedure: (§2) Modified Franz Diffusion Cells were filled with 55 ml of phosphate buffer, and a skin simulating membrane was placed in each cell at air-water interface and secured with a holed cap. The cells were placed into a water bath and the temperature was equilibrated to 38° C. The drug-loaded patch was gently placed onto the membrane and pressed down lightly. At different time points, the drug solution was collected and replaced with fresh buffer, and ultraviolet (UV) absorbance was measured at 200-300 nm with clean quartz cuvettes, using standard curves to determine drug concentrations and cumulative drug release percentages over time.
as §2, with “The permeation or flux of several drugs transdermally delivered to the skin was measured in vitro as a function of time using an artificial skin simulating membrane attached to a Franz diffusion cell at air-water interface. […] Modified” for “Modified”

[3] = Further experiments: permeation of small molecules through the patch matrix; settings: molecules trapped in polymer matrix

| Compound | diffusion of drug from the patch through skin simulating membrane over time (system permeable / impermeable) [2] | permeation into skin and bloodstream through the patch matrix [3] | also measured |
| --- | --- | --- | --- |
| Nc1ccncc1 [4-aminopyridine] | permeable | – | permeation and diffusion through patch over time ([1]; patch: 23% glycerol, 16% gum Arabic, 11% medium MW chitosan, 48% lactic acid, dried 18 hours at 55° C., FIG. 4): allows permeation and diffusion; permeation and diffusion through patch over time ([1]; patch: 36% glycerol, 15.3% PVP, 0.7% gum Arabic, 9.5% medium MW chitosan, 38.5% lactic acid, dried 5 hours at 80° C., FIG. 6): allows permeation and diffusion; permeation and diffusion through patch over time ([1]; patch: 50% glycerol, 14% PVP, 18% medium MW chitosan, 18% lactic acid, dried 3 hours at 80° C., FIG. 5): allows permeation and diffusion |
| O=C1CCc2ccc(OCCCCN3CCN(c4cccc(Cl)c4Cl)CC3)cc2N1 [aripiprazole, Aripiprazole] | impermeable | – | – |
| CC(NCCn1cnc2c1c(=O)n(C)c(=O)n2C)C(O)c1ccccc1 (stereo not shown) [cafedrine] | – | cannot permeate | – |
| CN(C)CCC[C@@]1(c2ccc(F)cc2)OCc2cc(C#N)ccc21.O=C(O)C(=O)O [escitalopram oxalate, Escitalopram Oxalate] | permeable | – | – |
| CC(Cc1ccccc1)NCCn1cnc2c1c(=O)n(C)c(=O)n2C (stereo not shown) [fenethylline] | – | cannot permeate | – |
| CC(=O)CCCCn1c(=O)c2c(ncn2C)n(C)c1=O [pentoxifyline] | – | cannot permeate | – |
| Cn1c(=O)c2c(ncn2CCNCC(O)c2ccc(O)c(O)c2)n(C)c1=O (stereo not shown) [theodrenaline] | – | cannot permeate | – |
